Data from patent US9580487B2, “Method of treating stomach or bowel-related disorders by administering glucagon-like-peptide-2 (GLP-2) analogues” (Zealand Pharma A/S, priority 2005, dated 2017).

Experiments:
[1] = system: male Sprague Dawley rats treated with indomethacin; experiment: Indomethacin-induced small intestinal ulcers (model of Crohn's disease), extent of ulceration; format: in vivo; settings: prednisolone 10 mg/kg vs indomethacin alone
Protocol: FIG. 13 is a graph illustrating the effect of compound 1848 (SEQ ID NO:36) on small intestinal ulcers induced by indomethacin. Male Sprague Dawley rats were treated with vehicle (saline; group 1) or indomethacin (7 mg/kg s.c., once daily for two days; groups 2-7). Indomethacin was given alone (group 2) or in combination with prednisolone (10 mg/kg s.c.; group 3) or with 8, 40, or 200 nmol/kg compound 1848 (SEQ ID NO:36) s.c. […] (groups 4-6). Finally, one group of rats was treated with combination treatment of prednisolone (10 mg/kg s.c.) and compound 1848 (SEQ ID NO:36), 200 nmol/kg s.c. once daily (group 7). Treatment with compound 1848 (SEQ ID NO:36) was initiated 4 days prior to indomethacin and continued during the two days of indomethacin treatment. On day 3, rats were sacrificed and upon necropsy, the small intestine was gently flushed with 10% formalin and filled with formalin for a period of 5 minutes, after which the intestine was cut open along the antimesenteric margin and suspended on a polypropylene plate. Any remaining intestinal contents were carefully removed with a pair of tweezers. After fixation for another 24 hours at room temperature, the tissue was rinsed in Milli-Q water and surface-stained for 20 minutes with Alcian Green 3BX (Chroma) prepared as a 0.5% solution in 1% acetic acid (Bie & Berntsen). After removal of excess staining solution with Milli-Q water the tissue preparation was transferred to 70% alcohol and analyzed using a stereomicroscope at low magnification (×7). Starting at the pylorus, the small intestine was scanned and the shape (circular vs. linear) and size (circular ulcers: diameter, linear ulcers: length×width) of all ulcers was measured using a standard ruler (resolution: 0.5 mm). An ulcer was defined as an area, which lacked epithelial surface. In healing ulcers only the area that still lacked epithelial surface was regarded an ulcer even if the villus structure was still missing in a larger area. All analysis was performed in a blinded manner. […] Treatment with prednisolone caused a significant reduction in the extent of ulceration by app. 29%. […] Values are means±SEM. * P<0.05 vs. indomethacin (group 2). ^#P<0.05 vs. prednisolone (group 3).
Crohn's disease is a chronic disease that causes episodic inflammation of the small intestine. The effect of the GLP-2 analogue 1848 (SEQ ID NO:36) on small intestinal inflammation in an indomethacin-induced model of Crohn's disease was investigated. We have previously shown that administration of indomethacin (s.c, once daily for 2 days) induces small intestinal inflammation characterized by ulcerations and, increases in the pro-inflammatory cytokine, tumour necrosis factor alpha (TNF-α).
To determine the effect of ZP1848 (SEQ ID NO:36) on ulceration 1848 (SEQ ID NO:36) (8, 40 and 200 nmol/kg, s.c, twice daily (9:00 and 16:00)) was given for 4 days prior to the first dose of indomethacin and for an additional two days together with indomethacin. The corticosteroid, prednisolone (10 mg/kg, p.o) was used as a positive control since corticosteroids are commonly used in the treatment of active inflammation in Crohn's disease. In addition a group of animals were given both 1848 (SEQ ID NO:36) (200 nmol/kg) and prednisolone to determine the effects of a combination treatment. Twenty four hours after the last dose of 1848 (SEQ ID NO:36) had been given the animals were sacrificed the small intestine was gently flushed clean and fixed. To determine the extent of ulceration the intestine was cut open along the antimesenteric margin, suspended on a polypropylene plate and surface-stained with Alcian Green 3BX. Starting at the pylorus, the small intestine was scanned and the shape (circular vs. linear) and size (circular ulcers: diameter, linear ulcers: length×width) of all ulcers was measured using a standard ruler (resolution: 0.5 mm). An ulcer was defined as an area, which lacked epithelial surface. […]

TNF-α = experiment: Small intestinal tissue content of TNF-α (ELISA) in rats with indomethacin-induced inflammation; format: in vivo; settings: prednisolone 10 mg/kg alone
Protocol: Male Sprague Dawley rats were treated with vehicle (saline; group 1) or indomethacin (7 mg/kg s.c., once daily for two days; groups 2-7). […] On day 3, rats were sacrificed and upon necropsy, the small intestine was divided into three segments of equal length corresponding to 1) duodenum and proximal jejunum, 2) mid and distal jejunum and 3) ileum. Samples were immediately snap-frozen in liquid N2 and stored at −80° C. until analysis. Homogenization and extraction of cellular protein from small intestinal segments was performed according to the following procedure: Tissue segments were weighed and added a volume of 1.5 ml per gram tissue ice-cold (4° C.) extraction buffer (10 mM Tris-HCl (Sigma) and 1 mM EDTA (J. T. Baker), (pH 7.6) with 0.05% sodium azide (Fluka), 1% Tween-80 (Fluka), 2 mM phenylmethylsulfonyl fluoride (PMSF, Fluka) and 1 μg/ml of each of the protease inhibitors aprotinin, leupeptin and pepstatin A (Roche Diagnostics)). The tissue was cut into small bits with a pair of scissors and homogenized three times for 20 seconds (IKA UltraTurrax T25 homogenizer, Janke & Kunkel) at 9500 rpm with intermittent cooling on ice for 30 seconds. The homogenate was centrifuged at 20.000×g for 30 minutes at 4° C., the supernatant was collected and stored at −20° C. until analysis for TNF-α small intestinal protein extractions were analyzed for TNF-α using a commercially available ELISA kit according to the manufacturer's instructions (Rat Tumor Necrosis Factor-α UltraSensitive ELISA kit, Biosource International Inc.). The assay has a detection limit of 0.7 pg/ml. Protein extractions were analyzed for total protein content using a commercially available assay (DC protein assay, Bio-Rad Laboratories Ltd.). Small intestinal tissue levels of TNF-α were expressed relative to total protein. […] Values are means±SEM. * P<0.05 vs. indomethacin (group 2).
At sacrifice, however the small intestine was separated into three segments of equal length (proximal, mid and distal). TNF-α concentrations were measured in each of the individual segments using a commercially available ELISA kit.

[2] = system: colonic neoplasms in mice; settings: cited from earlier work
[3] = in vivo; cited from earlier work

With `C[C@]12C=CC(=O)C=C1CC[C@@H]1[C@@H]2[C@@H](O)C[C@@]2(C)[C@H]1CC[C@]2(O)C(=O)CO` [prednisolone, reference compound] the “Reduction in the extent of ulceration” value [1] was ~29% and the “Tissue levels of TNF-α, all 3 segments” value (TNF-α) was “did not significantly affect tissue levels of TNF-α”.
For “H-His-Ala-Asp-Gly-Ser-Phe-Ser-Asp-Glu-Met-Asn-Thr-Ile-Leu-Asp-Asn-Leu-Ala-Ala-Arg-Asp-Phe-Ile-Asn-Trp-Leu-Ile-Gln-Thr-Lys-Ile-Thr-Asp-OH [GLP-2]”, the “Growth of colonic neoplasms” value [2] is listed as “accelerate the growth of colonic neoplasms in mice” and the half life [3] is listed as “about 7 minutes”.
